Assay results from patent publication EP3634580B1, “COMPOSITIONS COMPRISING LACTULOSE FOR MAINTAINING OR IMPROVING GUT HEALTH IN HUMANS” (Fresenius Kabi Austria GmbH, priority 2017, dated 2018).

Columns and labels:
[1] = tested on: colon microbiota of human origin; experiment: TIM-2 in vitro model of the proximal colon: short-chain fatty acids (SCFA) production; format: cell-based; conditions: for Cumulative production of butyrate / Cumulative production of total short chain fatty acids (SCFA): mean of n = 2
Procedure: (§1) Crystalline lactulose was administered daily for 5 days to the TNO Intestinal Model (TIM-2), an in vitro model of the proximal colon. NaOH consumption, short-chain fatty acids (SCFA) production, ammonia production as well as relative abundance of microbiota were analyzed.
(§2) The substance administered in this study was lactulose crystals (S.C.M. Società Chimica Mugello S.r.l., Vicchio, Italy). Experiments without the addition of lactulose served as negative control.
(§3) The TNO Intestinal Model (TIM-2) is a dynamic in vitro model of the proximal colon. The TIM-2 system was inoculated with a highly metabolically active colon microbiota of human origin. In the system the following standardized conditions were simulated: body temperature; pH in the lumen of the proximal colon (pH 5.8); delivery of a substrate from the 'ileum' (SIEM; Standardized Ileum Efflux Medium); mixing and transport of the intestinal contents; anaerobiosis; absorption of water and absorption of fermentation products, metabolites and other low molecular weight compounds (via a semipermeable membrane inside the colon model).
(§4) SIEM simulates material passing the ileocecal valve in humans. It contained the major non-digestible carbohydrates (pectin, xylan, arabinogalactan, amylopectin, starch) found in a normal western diet as well as protein (bactopepton, casein), ox-bile, Tween 80 as well as vitamins and minerals. SIEM was added to the system at a speed of 2.5 mL/h and the speed of the dialysis liquid was 1.5 mL/min. During the experiment, the intestinal contents were mixed continuously by the peristaltic movements of the TIM-2 system. In order to simulate the transit of the chime from proximal to distal colon, 25 mL of the lumen was removed every 24 h and discarded.
(§5) Before performing each experiment, the system was inoculated with a standardized microbiota of human origin. This standardized microbiota was prepared using fecal donations from a group of 4 healthy volunteers (3 females, 1 male, age 38.8 ± 3.9 years; BMI (body mass index) 24.2 ± 1.5 kg/m^2). Individuals provided signed informed consent before participation, were non-smokers and had not used antibiotics, prebiotics, probiotics or laxatives within 1 month before the stool donation.
(§6) At the start of the adaptation period the microbiota was allowed to adapt to the model conditions and SIEM for 16 h. After the adaptation period the 120 h test period started in which lactulose was added to TIM-2 once daily.
(§7) Lactulose was added to the system at daily doses of 2 g, 3 g, 4 g, and 5 g lactulose. Each dose as well as the control experiment was studied in duplicate (n = 2). The test period of the TIM-2 experiments lasted 120 h (5 consecutive days).
(§8) Metabolites like the short-chain fatty acids (SCFA) and ammonia produced in TIM-2 were continuously removed from the lumen by a semipermeable membrane unit. This dialysate was collected at the start of the test period and after 24, 48, 72, 96, and 120 h.
The lumen and dialysate fractions of TIM-2 were analyzed using gas chromatography for SCFA (acetate, propionate and butyrate). Dialysate samples were directly used. Lumen samples were centrifuged (12,000 rpm at 4 °C for 10 min).

[2] = tested on: colon microbiota of human origin; experiment: TIM-2 in vitro model of the proximal colon: ammonia production; format: cell-based; conditions: for ammonia production (in words): daily doses of 2 g, 3 g, 4 g, 5 g, 120 h test period, versus control; for Cumulative ammonia production: mean of n = 2
Procedure: as §1, §2, §3, §4, §5, §6, §7, §8
Samples for ammonia analysis were centrifuged as described above. Ammonia was determined based on the Berthelot reaction.

[3] = tested on: Bifidobacterium; experiment: TIM-2 microbiota composition by V4 16S rDNA amplicon sequencing; format: cell-based, human; conditions: for Average number of the bacterial genus Bifidobacterium: after 120 h of exposure in TIM-2, control 28,345
Procedure: as §1, §2, §3, §4, §5, §6, §7
(§9) At the beginning and end of the experiment (t = 0 h and t = 120 h) luminal samples were used to investigate the composition of the microbiota. The samples were snap frozen in liquid nitrogen and stored at ≤ -72 °C until analysis.
(§10) The bacterial population in the TIM-2 samples was analyzed using Next Generation sequencing. Total DNA from the collected TIM-2 lumen samples at the start (t = 0 h) and at the end (t = 120 h) of the experiments was isolated. To determine the recovery of bacterial DNA from the samples, a quantitative polymerase chain reaction (qPCR) using primers specific for the bacterial 16S rRNA gene was used. Changes in the microbiota composition were analyzed by using mass V4 16S rDNA amplicon sequencing. Processing of the sequencing data was done using the Mothur pipeline.

[4] = tested on: Lactobacillus; experiment: as above; format: cell-based, human; conditions: for Average number of the bacterial genus Lactobacillus: after 120 h of exposure in TIM-2, control 82
Procedure: as §1, §2, §3, §4, §5, §6, §7, §9, §10

[5] = daily doses of 2 g, 3 g, 4 g, 5 g, 120 h test period, versus control
[6] = lactulose 2 g daily, 0 h (values at the start set to zero), control 0
[7] = lactulose 3 g daily, 0 h (values at the start set to zero), control 0
[8] = lactulose 4 g daily, 0 h (values at the start set to zero), control 0
[9] = lactulose 5 g daily, 0 h (values at the start set to zero), control 0
[10] = after 120 h in TIM-2, versus control

SMILES: OC[C@H]1O[C@@H](O[C@@H]2[C@@H](CO)OC(O)(CO)[C@H]2O)[C@H](O)[C@@H](O)[C@H]1O (mixture of isomers) [Lactulose, lactulose]
- SCFA production (in words) [1, 5]: increased the levels
- levels of butyrate (in words) [1, 5]: increased the levels
- SCFA production (in words) ([1]; daily doses of 2 g, 3 g, 4 g, 5 g, 120 h test period, versus control, listed as lactulose): higher SCFA production as compared to the control
- Cumulative production of butyrate [1, 6]: 0 mmol
- Cumulative production of total short chain fatty acids (SCFA) [1, 6]: 0 mmol
- Cumulative production of butyrate ([1]; lactulose 2 g daily, 24 h, control 7): 14 mmol
- Cumulative production of total short chain fatty acids (SCFA) ([1]; lactulose 2 g daily, 24 h, control 62): 85 mmol
- Cumulative production of butyrate ([1]; lactulose 2 g daily, 48 h, control 18): 27 mmol
- Cumulative production of total short chain fatty acids (SCFA) ([1]; lactulose 2 g daily, 48 h, control 129): 163 mmol
- Cumulative production of butyrate ([1]; lactulose 2 g daily, 72 h, control 31): 39 mmol
- Cumulative production of total short chain fatty acids (SCFA) ([1]; lactulose 2 g daily, 72 h, control 194): 234 mmol
- Cumulative production of butyrate ([1]; lactulose 2 g daily, 96 h, control 44): 52 mmol
- Cumulative production of total short chain fatty acids (SCFA) ([1]; lactulose 2 g daily, 96 h, control 257): 318 mmol
- Cumulative production of butyrate ([1]; lactulose 2 g daily, 120 h, control 58): 69 mmol
- Cumulative production of total short chain fatty acids (SCFA) ([1]; lactulose 2 g daily, 120 h, control 320): 403 mmol
- Cumulative production of butyrate [1, 7]: 0 mmol
- Cumulative production of total short chain fatty acids (SCFA) [1, 7]: 0 mmol
- Cumulative production of butyrate ([1]; lactulose 3 g daily, 24 h, control 7): 12 mmol
- Cumulative production of total short chain fatty acids (SCFA) ([1]; lactulose 3 g daily, 24 h, control 62): 85 mmol
- Cumulative production of butyrate ([1]; lactulose 3 g daily, 48 h, control 18): 27 mmol
- Cumulative production of total short chain fatty acids (SCFA) ([1]; lactulose 3 g daily, 48 h, control 129): 175 mmol
- Cumulative production of butyrate ([1]; lactulose 3 g daily, 72 h, control 31): 40 mmol
- Cumulative production of total short chain fatty acids (SCFA) ([1]; lactulose 3 g daily, 72 h, control 194): 256 mmol
- Cumulative production of butyrate ([1]; lactulose 3 g daily, 96 h, control 44): 54 mmol
- Cumulative production of total short chain fatty acids (SCFA) ([1]; lactulose 3 g daily, 96 h, control 257): 340 mmol
- Cumulative production of butyrate ([1]; lactulose 3 g daily, 120 h, control 58): 68 mmol
- Cumulative production of total short chain fatty acids (SCFA) ([1]; lactulose 3 g daily, 120 h, control 320): 427 mmol
- Cumulative production of butyrate [1, 8]: 0 mmol
- Cumulative production of total short chain fatty acids (SCFA) [1, 8]: 0 mmol
- Cumulative production of butyrate ([1]; lactulose 4 g daily, 24 h, control 7): 12 mmol
- Cumulative production of total short chain fatty acids (SCFA) ([1]; lactulose 4 g daily, 24 h, control 62): 97 mmol
- Cumulative production of butyrate ([1]; lactulose 4 g daily, 48 h, control 18): 30 mmol
- Cumulative production of total short chain fatty acids (SCFA) ([1]; lactulose 4 g daily, 48 h, control 129): 216 mmol
- Cumulative production of butyrate ([1]; lactulose 4 g daily, 72 h, control 31): 47 mmol
- Cumulative production of total short chain fatty acids (SCFA) ([1]; lactulose 4 g daily, 72 h, control 194): 310 mmol
- Cumulative production of butyrate ([1]; lactulose 4 g daily, 96 h, control 44): 70 mmol
- Cumulative production of total short chain fatty acids (SCFA) ([1]; lactulose 4 g daily, 96 h, control 257): 405 mmol
- Cumulative production of butyrate ([1]; lactulose 4 g daily, 120 h, control 58): 93 mmol
- Cumulative production of total short chain fatty acids (SCFA) ([1]; lactulose 4 g daily, 120 h, control 320): 500 mmol
- Cumulative production of butyrate [1, 9]: 0 mmol
- Cumulative production of total short chain fatty acids (SCFA) [1, 9]: 0 mmol
- Cumulative production of butyrate ([1]; lactulose 5 g daily, 24 h, control 7): 8 mmol
- Cumulative production of total short chain fatty acids (SCFA) ([1]; lactulose 5 g daily, 24 h, control 62): 84 mmol
- Cumulative production of butyrate ([1]; lactulose 5 g daily, 48 h, control 18): 29 mmol
- Cumulative production of total short chain fatty acids (SCFA) ([1]; lactulose 5 g daily, 48 h, control 129): 214 mmol
- Cumulative production of butyrate ([1]; lactulose 5 g daily, 72 h, control 31): 53 mmol
- Cumulative production of total short chain fatty acids (SCFA) ([1]; lactulose 5 g daily, 72 h, control 194): 309 mmol
- Cumulative production of butyrate ([1]; lactulose 5 g daily, 96 h, control 44): 84 mmol
- Cumulative production of total short chain fatty acids (SCFA) ([1]; lactulose 5 g daily, 96 h, control 257): 430 mmol
- Cumulative production of butyrate ([1]; lactulose 5 g daily, 120 h, control 58): 118 mmol
- Cumulative production of total short chain fatty acids (SCFA) ([1]; lactulose 5 g daily, 120 h, control 320): 520 mmol
- ammonia production (in words) [2]: decreased the levels
- ammonia production (in words) ([2]; listed as lactulose): decreased mean ammonia production
- Cumulative ammonia production ([2]; lactulose 2 g daily, 0 h, control 0): 0 mmol
- Cumulative ammonia production ([2]; lactulose 2 g daily, 24 h, control 10): 9 mmol
- Cumulative ammonia production ([2]; lactulose 2 g daily, 48 h, control 31): 29 mmol
- Cumulative ammonia production ([2]; lactulose 2 g daily, 72 h, control 55): 48 mmol
- Cumulative ammonia production ([2]; lactulose 2 g daily, 96 h, control 82): 68 mmol
- Cumulative ammonia production ([2]; lactulose 2 g daily, 120 h, control 108): 88 mmol
- Cumulative ammonia production ([2]; lactulose 3 g daily, 0 h, control 0): 0 mmol
- Cumulative ammonia production ([2]; lactulose 3 g daily, 24 h, control 10): 9 mmol
- Cumulative ammonia production ([2]; lactulose 3 g daily, 48 h, control 31): 26 mmol
- Cumulative ammonia production ([2]; lactulose 3 g daily, 72 h, control 55): 45 mmol
- Cumulative ammonia production ([2]; lactulose 3 g daily, 96 h, control 82): 64 mmol
- Cumulative ammonia production ([2]; lactulose 3 g daily, 120 h, control 108): 85 mmol
- Cumulative ammonia production ([2]; lactulose 4 g daily, 0 h, control 0): 0 mmol
- Cumulative ammonia production ([2]; lactulose 4 g daily, 24 h, control 10): 6 mmol
- Cumulative ammonia production ([2]; lactulose 4 g daily, 48 h, control 31): 15 mmol
- Cumulative ammonia production ([2]; lactulose 4 g daily, 72 h, control 55): 25 mmol
- Cumulative ammonia production ([2]; lactulose 4 g daily, 96 h, control 82): 38 mmol
- Cumulative ammonia production ([2]; lactulose 4 g daily, 120 h, control 108): 51 mmol
- Cumulative ammonia production ([2]; lactulose 5 g daily, 0 h, control 0): 0 mmol
- Cumulative ammonia production ([2]; lactulose 5 g daily, 24 h, control 10): 5 mmol
- Cumulative ammonia production ([2]; lactulose 5 g daily, 48 h, control 31): 12 mmol
- Cumulative ammonia production ([2]; lactulose 5 g daily, 72 h, control 55): 22 mmol
- Cumulative ammonia production ([2]; lactulose 5 g daily, 96 h, control 82): 32 mmol
- Cumulative ammonia production ([2]; lactulose 5 g daily, 120 h, control 108): 41 mmol
- abundance of Bifidobacterium (in words) [3, 10]: increased the abundance
- Average number of the bacterial genus Bifidobacterium ([3]; lactulose 2 g daily): 24,781
- Average number of the bacterial genus Bifidobacterium ([3]; lactulose 3 g daily): 17,424
- Average number of the bacterial genus Bifidobacterium ([3]; lactulose 4 g daily): 135,876
- Average number of the bacterial genus Bifidobacterium ([3]; lactulose 5 g daily): 116,792
- abundance of Lactobacillus (in words) [4, 10]: increased the abundance
- Average number of the bacterial genus Lactobacillus ([4]; lactulose 2 g daily): 1,623
- Average number of the bacterial genus Lactobacillus ([4]; lactulose 3 g daily): 1,504
- Average number of the bacterial genus Lactobacillus ([4]; lactulose 4 g daily): 12,047
- Average number of the bacterial genus Lactobacillus ([4]; lactulose 5 g daily): 912
